Experimental data from patent publication US8507547B2, “Anti-fatigue agents and oral compositions containing andrographolide as active ingredient” (Suntory Holdings Limited, priority 2007, dated 2013).

Columns and labels:
Balb/c mice = experiment: Water-immersion and sleep-disturbance test (weight-loaded forced swimming test, swimming time); type: in vivo
Excerpt: The first test is measurement of a swimming time in a water-immersion and sleep-disturbance test. This is described in detail below in Example 1. Mice raised in an environment, such as a water-immersed environment, where they were not allowed to take enough sleep or to take a comfortable posture so that they could take neither physical nor mental rest were weighted and forced to swim, and a length of time that passed until noses of the mice sank under the water for a period of 10 seconds or longer was measured (weight-loaded forced swimming test) to determine their fatigue level.
That is to say, since this animal model is a physical and mental fatigue model as well as an organ fatigue model described below, anti-fatigue action against physical and/or mental fatigue would be confirmed if the swimming time becomes longer as a result of administration of the test substance. Such anti-fatigue action is considered to be involved in reduction in fatigue stress, maintenance of physical energy under fatigue conditions (enhancement of body strength), improvement in endurance, and the like.
Effect of andrographolide on fatigue from water immersion and sleep disturbance was examined using a partially modified method of Tanaka et al. (Neuroscience Let. 352, 159-162, 2003). […] Four out of the five groups were reared as water-immersed groups; the groups were kept in cages in such a manner that each of the cages was filled with tap water at 23° C. with a water depth of 7 mm, instead of a floor covering, so that the mice were immersed in water and deprived of sleep. The mice were immersed in water for two days, andrographolide (Aldrich corp., purity 98%) was forcibly administered orally to the mice with doses of 0.5, 2, 8 mg per kilogram of body weight once daily during the two days (water-immersed and andrographolide-administered group). As a control group, one of the groups was immersed in water for two days, and distilled water was forcibly given orally to the group once daily during the two days (water-immersed control group). The remaining one of the five groups was reared as a normally-reared group; this group was kept in a cage with a normal floor covering, and distilled water was forcibly given orally to the group once daily during the two-day rearing (normally-reared control group). After the two days, each of the mice was provided with a weight corresponding to 8% of its body weight, which weight was attached to its tale, and then the mice were forced to swim in a water tank having a diameter of 18 cm and filled with water having a depth of 30 cm. A length of time that passed until the mice sank under water for a period of 10 seconds or longer (swimming time) was measured (weight-loaded forced swimming test).
The swimming time of the mice of the water-immersed group was shorter than that of the mice of the normally-reared group because of fatigue from the water immersion and sleep disturbance. The effect of andrographolide on the fatigue from the water immersion and sleep disturbance was examined by determining recovery of a reduction in the swimming time of the mice of the water-immersed group after the administration of andrographolide.
In accordance with the procedure described in Example 1, effect on water-immersion and sleep-disturbance fatigue was examined in a case in which andrographolide was administered alone to mice, a case in which alpha-lipoic acid was administered alone to mice, and a case in which a combination of andrographolide and alpha-lipoic acid was administered to mice. Eight-week-old male Balb/c mice were used as a test animal. […] Four out of the five groups served as water-immersed groups, and each of the groups was kept in a cage filled with tap water at 23° C. with a water depth of 7 mm, instead of a floor covering, so that the mice were immersed in water and deprived of sleep. […]

Sprague Dawley rats = experiment: Forced exercise test (amount of spontaneous exercise after treadmill exercise stress); type: in vivo; settings: 2 mg per kilogram of body weight orally after 3 hours treadmill exercise stress; FIG. 3
Description: The third test is measurement of an amount of spontaneous exercise in a forced exercise test. This is described in detail below in Example 3. Rats were forced to exercise on a treadmill, and thereafter the test substance was administered. Then, the amount of spontaneous exercise of the animal was measured. Since this animal model is an exercise fatigue (physical fatigue) model, anti-fatigue action against physical fatigue would be confirmed if increase in the amount of spontaneous exercise is observed after the administration of the test substance. Such anti-fatigue action is considered to be involved in improving endurance and exercise performance.
Six-week-old male Sprague Dawley rats were used as a test animal. On the day before the test was started, the rats were divided into five groups each having eight rats, and all of the rats were deprived of food since the morning of the test day. […] Thereafter, the rats were moved into a spontaneous exercise measuring device having an infrared sensor (Supermex, Muromachi Kikai Co., Ltd.), and an amount of spontaneous exercise was measured during a period of 0-2 hours (exploration) and a period of 2-14 hours (dark period). […]

C=C1CC[C@@H]2[C@](C)(CO)[C@H](O)CC[C@@]2(C)[C@@H]1C/C=C1/C(=O)OC[C@H]1O [andrographolide]
reduction in the swimming time (Balb/c mice; 0.25 mg per kilogram of body weight orally once daily during two days of water immersion, FIG. 1(B)): prevented reduction in the swimming time | reduction in the swimming time (Balb/c mice; 200 mg per kilogram of body weight orally once daily during two days of water immersion, FIG. 1(C)): prevented reduction in the swimming time | toxicity to the mice (Balb/c mice; 200 mg per kilogram of body weight orally once daily for two days): no toxicity to the mice was observed | reduction in the swimming time (Balb/c mice; 0.5, 2, 8 mg per kilogram of body weight orally once daily during two days of water immersion, FIG. 1(A)): prevented in a dose-dependent manner | shortening of the swimming time (Balb/c mice; Example 5, FIG. 5, andrographolide 0.25 mg/kg (5a), alpha-lipoic acid 50 mg/kg (5b) or both (5c), orally once daily during two days of water immersion): prevented from shortening | increase rate of the swimming time (Balb/c mice; Example 5, swimming time of normally-reared group minus water-immersed control group = 100%, andrographolide 0.25 mg/kg, alpha-lipoic acid 50 mg/kg, alone or combined): 5% | amount of spontaneous exercise (Sprague Dawley rats): increase in the amount of spontaneous exercise was observed
